Test results published in patent US11111247B2, “Pyrazolopyrimidine compounds and uses thereof” (Incyte Corporation, priority 2018, dated 2021).
pIC50: −log10 of the molar value. Where two headings read alike, the source gives them in different places.

Key:
FGFR2 (P) = FGFR2 (P) (Homo sapiens (Human), UniProt P21802); test: FGFR Enzymatic Assay, FGFR2 phosphorylated; conditions: phosphorylated enzyme, ATP near or below Km; for IC50: FGFR2 (P) IC50 (nM); for pIC50: read-out: FGFR2 (P) IC50
Method: (§1) The inhibitor potency of the exemplified compounds was determined in an enzyme discontinuous assay that measures peptide phosphorylation using FRET measurements to detect product formation. Inhibitors were serially diluted in DMSO and a volume of 0.2 μL was transferred to the wells of a 384-well plate. For the isoforms of FGFR (−1, −2, −3 wild-type and mutant isoforms, −4) including phosphorylated (P) and un-phosphorylated (UP) proteins, a 5 μL/well volume of enzyme diluted in assay buffer (50 mM HEPES, 10 mM MgCl2, 1 mM EGTA, 0.01% Tween-20, 5 mM DTT, pH 7.5) was added to the plate and pre-incubated with inhibitor for 5 to 15 minutes at ambient temperature. Appropriate controls (enzyme blank and enzyme with no inhibitor) were included on the plate. The reaction was initiated by the addition of a 5 μL/well volume containing both biotinylated [sequence] […] The plate was allowed to equilibrate for −10 minutes at ambient temperature before scanning on a PheraStar plate reader (BMG Labtech) instrument.
(§2) Either GraphPad prism or XLfit was used to analyze the data. The IC50 values were derived by fitting the data to a four parameter logistic equation producing a sigmoidal dose-response curve with a variable Hill coefficient. Prism equation: Y=Bottom+(Top−Bottom)/(1+10^((LogIC50−X)*Hill slope)); XLfit equation: Y=(A+((B−A)/(1+((X/C)^D)))) where X is the logarithm of inhibitor concentration and Y is the response.

FGFR3 (UP) = FGFR3 (UP) (Homo sapiens (Human), UniProt P22607); test: FGFR Enzymatic Assay, FGFR3 un-phosphorylated
Chain of FGFR3 (UP) (P22607 23-806): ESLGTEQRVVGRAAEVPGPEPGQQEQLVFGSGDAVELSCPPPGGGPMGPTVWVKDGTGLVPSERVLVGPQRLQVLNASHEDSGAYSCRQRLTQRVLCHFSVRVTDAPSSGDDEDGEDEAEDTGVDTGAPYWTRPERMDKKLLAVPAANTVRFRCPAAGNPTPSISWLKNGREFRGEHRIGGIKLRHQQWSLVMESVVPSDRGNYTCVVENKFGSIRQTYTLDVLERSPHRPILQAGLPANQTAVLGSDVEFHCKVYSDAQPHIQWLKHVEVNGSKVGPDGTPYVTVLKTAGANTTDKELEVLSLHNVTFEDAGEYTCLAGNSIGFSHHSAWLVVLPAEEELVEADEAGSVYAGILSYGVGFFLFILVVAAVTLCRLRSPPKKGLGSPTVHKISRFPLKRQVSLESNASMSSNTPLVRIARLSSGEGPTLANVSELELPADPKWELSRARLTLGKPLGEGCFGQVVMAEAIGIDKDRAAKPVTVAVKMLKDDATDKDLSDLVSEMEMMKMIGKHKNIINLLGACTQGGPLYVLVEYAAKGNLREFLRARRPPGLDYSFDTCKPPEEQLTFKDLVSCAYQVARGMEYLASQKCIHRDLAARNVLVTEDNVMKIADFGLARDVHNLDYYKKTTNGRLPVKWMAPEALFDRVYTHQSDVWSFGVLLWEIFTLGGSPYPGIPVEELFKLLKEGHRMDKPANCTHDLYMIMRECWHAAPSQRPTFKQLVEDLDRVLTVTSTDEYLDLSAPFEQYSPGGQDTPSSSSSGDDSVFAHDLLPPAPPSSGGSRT

ALK2 = ALK2 (Homo sapiens (Human), UniProt Q04771); test: ALK2 Cellular Assay (phospho SMAD1 HTRF, BMP-7 stimulated HeLa cells); type: cell-based; conditions: HeLa cells, 200 ng/ml BMP-7, Phospho SMAD1 (S463/S465) HTRF; read-out: ALK2 Cellular Assay PSMAD
Chain of ALK2 (Q04771 21-509): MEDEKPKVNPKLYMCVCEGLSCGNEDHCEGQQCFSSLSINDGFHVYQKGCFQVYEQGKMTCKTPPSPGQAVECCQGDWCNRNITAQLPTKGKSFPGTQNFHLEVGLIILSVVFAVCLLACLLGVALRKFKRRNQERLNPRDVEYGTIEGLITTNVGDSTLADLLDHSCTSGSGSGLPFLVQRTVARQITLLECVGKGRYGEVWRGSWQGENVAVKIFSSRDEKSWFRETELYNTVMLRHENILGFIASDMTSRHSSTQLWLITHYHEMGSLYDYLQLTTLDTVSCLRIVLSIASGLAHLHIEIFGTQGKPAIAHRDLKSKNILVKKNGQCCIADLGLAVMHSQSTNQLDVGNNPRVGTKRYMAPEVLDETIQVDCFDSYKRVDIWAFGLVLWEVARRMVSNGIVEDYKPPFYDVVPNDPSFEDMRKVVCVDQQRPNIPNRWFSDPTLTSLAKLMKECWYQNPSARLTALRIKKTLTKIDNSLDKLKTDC
Method: HeLa cells were cultured in MEM media with 10% FBS. […] HeLa cells were plated in 96 well flat bottomed plate at 50,000 cells per well and incubated overnight. Next day, media was removed and 50 μL of fresh complete media was added. 5 μL compound was added to cells (3 μM final concentration at highest) and incubated for 60 min at 37° C. 200 ng/ml BMP-7 was added and incubated for 30 min at 37° C. After incubation, the media was removed, washed 2×PBS, and proceeded with HTRF kit according to Cisbio HTRF kit instructions for measuring the Phospho SMAD1 (S463/S465). Finally, both the donor and acceptor were added into 384 well plates and incubated at room temperature overnight and the HTRF signal was measured via Pherastar the next day.

ALK2 (aa 147-end) = ALK2 (aa 147-end) (Homo sapiens (Human), UniProt Q04771); test: ALK2 HTRF Assay; type: biochemical
Chain of ALK2 (aa 147-end) (Q04771 147-509): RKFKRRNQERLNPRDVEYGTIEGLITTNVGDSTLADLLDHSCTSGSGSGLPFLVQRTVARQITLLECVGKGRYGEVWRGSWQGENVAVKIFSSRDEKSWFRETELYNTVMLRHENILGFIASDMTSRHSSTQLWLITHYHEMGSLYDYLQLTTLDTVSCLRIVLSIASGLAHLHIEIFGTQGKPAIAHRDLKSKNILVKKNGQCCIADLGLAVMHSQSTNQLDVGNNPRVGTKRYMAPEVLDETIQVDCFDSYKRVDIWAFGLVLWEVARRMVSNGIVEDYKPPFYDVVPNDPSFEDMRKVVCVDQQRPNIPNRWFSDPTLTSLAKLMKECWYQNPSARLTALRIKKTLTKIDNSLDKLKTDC
Method: The enzymatic assays were conducted in white 384-well polystyrene plates in a final volume of 8 μL. The inhibitors were serially diluted in DMSO and added to the plate wells prior to addition of the other reaction components. The assays were carried out at 25° C. in the assay buffer (50 mM HEPES, pH 7.1, 10% Glycerol, 0.01% Brij50, 10 mM MgCl2, 1 mM EGTA, 5 mM DTT, and 0.01% BSA), containing 50 nM LANCE Ultra ULight™-DNA Topoisomerase 2-alpha peptide (Perkin Elmer TRF0130), and 3 uM, 100 uM or 1 mM ATP (as specified). […] The reaction was read on a PHERAstar FS plate reader (BMG Labtech). IC50 determination was performed by fitting percent control activity versus the log of the inhibitor concentration using the IDBS XLFit and GraphPad Prism 5.0 software.

FGFR1 (UP) = FGFR1 (UP) (Homo sapiens (Human), UniProt P11362); test: FGFR Enzymatic Assay, FGFR1 un-phosphorylated
Chain of FGFR1 (UP) (P11362 22-822): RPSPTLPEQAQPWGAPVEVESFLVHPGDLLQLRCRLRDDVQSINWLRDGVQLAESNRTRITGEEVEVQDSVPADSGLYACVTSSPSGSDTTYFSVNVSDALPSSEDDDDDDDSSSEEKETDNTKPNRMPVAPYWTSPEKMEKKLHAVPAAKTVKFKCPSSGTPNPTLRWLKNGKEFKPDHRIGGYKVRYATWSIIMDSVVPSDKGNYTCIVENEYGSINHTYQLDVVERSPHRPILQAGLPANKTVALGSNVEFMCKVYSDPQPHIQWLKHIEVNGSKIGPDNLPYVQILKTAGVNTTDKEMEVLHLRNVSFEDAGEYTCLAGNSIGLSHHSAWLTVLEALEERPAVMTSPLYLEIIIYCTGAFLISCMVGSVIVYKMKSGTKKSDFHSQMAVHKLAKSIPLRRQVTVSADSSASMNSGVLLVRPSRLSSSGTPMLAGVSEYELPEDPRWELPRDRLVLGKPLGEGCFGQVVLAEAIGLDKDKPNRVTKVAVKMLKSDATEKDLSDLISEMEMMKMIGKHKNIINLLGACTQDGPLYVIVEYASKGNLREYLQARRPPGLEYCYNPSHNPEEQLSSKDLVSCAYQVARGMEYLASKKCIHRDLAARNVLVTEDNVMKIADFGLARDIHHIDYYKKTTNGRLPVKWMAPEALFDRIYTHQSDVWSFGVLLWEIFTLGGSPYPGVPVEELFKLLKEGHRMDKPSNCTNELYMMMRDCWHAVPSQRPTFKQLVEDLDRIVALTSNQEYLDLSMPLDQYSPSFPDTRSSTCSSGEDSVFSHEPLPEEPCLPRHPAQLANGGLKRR
Method: as §1, §2

[1] = read-out: FGFR3 (UP) IC50, un-phosphorylated enzyme, ATP near or below Km
[2] = read-out: ALK2 3 μM IC50, 3 uM ATP
[3] = read-out: ALK2 100 μM IC50, 100 uM ATP
[4] = read-out: ALK2 1 mM IC50, 1 mM ATP
[5] = read-out: FGFR1 (UP) IC50, un-phosphorylated enzyme, ATP near or below Km

Chain of FGFR2 (P) (P21802 22-821): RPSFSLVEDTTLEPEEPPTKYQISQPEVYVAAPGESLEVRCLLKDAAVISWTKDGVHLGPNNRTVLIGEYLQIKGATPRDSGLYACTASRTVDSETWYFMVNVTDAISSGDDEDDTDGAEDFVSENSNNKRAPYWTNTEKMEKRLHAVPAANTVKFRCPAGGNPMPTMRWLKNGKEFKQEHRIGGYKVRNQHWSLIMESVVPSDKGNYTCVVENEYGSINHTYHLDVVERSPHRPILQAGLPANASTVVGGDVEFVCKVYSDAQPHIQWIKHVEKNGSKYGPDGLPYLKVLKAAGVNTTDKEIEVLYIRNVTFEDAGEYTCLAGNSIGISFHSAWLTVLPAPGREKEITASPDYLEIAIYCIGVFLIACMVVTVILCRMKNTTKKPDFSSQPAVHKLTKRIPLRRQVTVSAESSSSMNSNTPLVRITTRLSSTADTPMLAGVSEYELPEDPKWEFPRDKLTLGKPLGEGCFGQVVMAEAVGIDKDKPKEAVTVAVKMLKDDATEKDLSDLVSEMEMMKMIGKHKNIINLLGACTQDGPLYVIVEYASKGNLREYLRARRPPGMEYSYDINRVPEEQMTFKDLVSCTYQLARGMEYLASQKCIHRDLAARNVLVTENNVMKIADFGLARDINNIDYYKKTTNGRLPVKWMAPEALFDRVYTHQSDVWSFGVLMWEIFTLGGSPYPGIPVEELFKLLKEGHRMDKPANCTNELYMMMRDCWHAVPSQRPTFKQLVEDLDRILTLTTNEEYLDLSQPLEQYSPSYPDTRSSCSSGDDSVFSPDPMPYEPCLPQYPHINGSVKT

| Structure (SMILES) | IC50 (FGFR2 (P)) | pIC50 (ALK2) | pIC50 (ALK2 (aa 147-end); [2]) | pIC50 (ALK2 (aa 147-end); ALK2 100 μM IC50, 100 uM ATP) | pIC50 (FGFR2 (P)) | further results |
| --- | --- | --- | --- | --- | --- | --- |
| CN1CC2CCC(C1=O)N2c1ncc2[nH]nc(-c3cnn(C4CCC4)c3)c2n1 (single isomer, unassigned) [Example 63, 8-(3-(1-Cyclobutyl-1H-pyrazol-4-yl)-1H-pyrazolo[4,3-d]pyrimidin-5-yl)-3-methyl-3,8-diazabicyclo[3.2.1]octan-2-one] | 500 to 2000 nM |  |  |  |  |  |
| C[C@@H]1CN(c2ccc(-c3n[nH]c4cnc(N5[C@@H]6CCC[C@H]5[C@@H](O)C6)nc34)cn2)CCN1 [Example 4, (1R,5S,6S)-8-(3-(6-((R)-3-Methylpiperazin-1-yl)pyridin-3-yl)-1H-pyrazolo[4,3-d]pyrimidin-5-yl)-8-azabicyclo[3.2.1]octan-6-ol] |  | 6.30 to 7.00 | > 7.00 |  | > 7.00 | pIC50 (FGFR3 (UP); [1]): > 7.00; pIC50 (ALK2 (aa 147-end); [3]): > 7.00; pIC50 (ALK2 (aa 147-end); [4]): > 7.00; pIC50 (FGFR1 (UP)): 6.30 to 7.00 |
| CC(C)C(=O)N1C[C@@H](C)N(c2ncc3[nH]nc(-c4ccc(N5CCN[C@H](C)C5)nc4)c3n2)[C@@H](C)C1 [Example 5, 1-((3R,5S)-3,5-Dimethyl-4-(3-(6-((R)-3-methylpiperazin-1-yl)pyridin-3-yl)-1H-pyrazolo[4,3-d]pyrimidin-5-yl)piperazin-1-yl)-2-methylpropan-1-one] |  | 5.70 to 6.30 | > 7.00 | 6.30 to 7.00 | < 5.70 | pIC50 (FGFR3 (UP); [1]): < 5.70; pIC50 (ALK2 (aa 147-end); ALK2 1 mM IC50, 1 mM ATP): 6.30 to 7.00; pIC50 (FGFR1 (UP); [5]): < 5.70 |
| COC(=O)N1C[C@@H](C)N(c2ncc3[nH]nc(-c4ccc(N5CCN(C)CC5)cc4)c3n2)[C@@H](C)C1 [Example 22, Methyl (3R,5S)-3,5-dimethyl-4-(3-(4-(4-methylpiperazin-1-yl)phenyl)-1H-pyrazolo[4,3-d]pyrimidin-5-yl)piperazine-1-carboxylate] |  | > 7.00 | > 7.00 |  |  | pIC50 (ALK2 (aa 147-end); [3]): > 7.00; pIC50 (ALK2 (aa 147-end); [4]): > 7.00 |
| COC(=O)N1C[C@@H](C)N(c2ncc3[nH]nc(-c4ccc(C5CCN(C)C5)cc4)c3n2)[C@@H](C)C1 (stereo partly drawn) [Example 27, Methyl (3R,5S)-3,5-dimethyl-4-(3-(4-(1-methylpyrrolidin-3-yl)phenyl)-1H-pyrazolo[4,3-d]pyrimidin-5-yl)piperazine-1-carboxylate] |  | 6.30 to 7.00 | > 7.00 |  |  | pIC50 (ALK2 (aa 147-end); ALK2 1 mM IC50, 1 mM ATP): 6.30 to 7.00 |
| COC(=O)N1C[C@@H](C)N(c2ncc3[nH]nc(-c4ccc(N5CCN6C[C@@H](O)C[C@@H]6C5)cc4)c3n2)[C@@H](C)C1 [Example 35, Methyl (3R,5S)-4-(3-(4-((7S,8aR)-7-hydroxyhexahydropyrrolo[1,2-a]pyrazin-2(1H)-yl)phenyl)-1H-pyrazolo[4,3-d]pyrimidin-5-yl)-3,5-dimethylpiperazine-1-carboxylate] |  | 6.30 to 7.00 | > 7.00 |  |  | pIC50 (ALK2 (aa 147-end); ALK2 1 mM IC50, 1 mM ATP): 6.30 to 7.00 |
| CN1CCN(c2ncc3[nH]nc(-c4cnn(C)c4)c3n2)CC1=O [Example 36, 1-Methyl-4-(3-(1-methyl-1H-pyrazol-4-yl)-1H-pyrazolo[4,3-d]pyrimidin-5-yl)piperazin-2-one] | 100 to 500 nM |  |  | 5.70 to 6.30 |  | pIC50 (ALK2 (aa 147-end); ALK2 3 μM IC50, 3 uM ATP): 5.70 to 6.30 |
| COCCn1cc(-c2n[nH]c3cnc(N4C5CCC4C(=O)N(C)C5)nc23)cn1 (centres unmarked) [Example 53, 8-(3-(1-(2-Methoxyethyl)-1H-pyrazol-4-yl)-1H-pyrazolo[4,3-d]pyrimidin-5-yl)-3-methyl-3,8-diazabicyclo[3.2.1]octan-2-one] |  |  |  |  | > 7.00 |  |
| CN1CC2CCC(C1=O)N2c1ncc2[nH]nc(-c3cnn(C4CCOCC4)c3)c2n1 (centres unmarked) [Example 54, 3-Methyl-8-(3-(1-(tetrahydro-2H-pyran-4-yl)-1H-pyrazol-4-yl)-1H-pyrazolo[4,3-d]pyrimidin-5-yl)-3,8-diazabicyclo[3.2.1]octan-2-one] |  |  |  |  | > 7.00 |  |
| CN1CC2CCC(C1=O)N2c1ncc2[nH]nc(-c3cnn([C@H]4CC[C@H](O)CC4)c3)c2n1 (stereo partly drawn) [Example 55, 8-(3-(1-((1r,4S)-4-Hydroxycyclohexyl)-1H-pyrazol-4-yl)-1H-pyrazolo[4,3-d]pyrimidin-5-yl)-3-methyl-3,8-diazabicyclo[3.2.1]octan-2-one] |  |  |  |  | > 7.00 |  |
| CN1CC2CCC(C1=O)N2c1ncc2[nH]nc(-c3cnn(CCN4CCOCC4)c3)c2n1 (centres unmarked) [Example 58, 3-Methyl-8-(3-(1-(2-morpholinoethyl)-1H-pyrazol-4-yl)-1H-pyrazolo[4,3-d]pyrimidin-5-yl)-3,8-diazabicyclo[3.2.1]octan-2-one] |  |  |  | 5.70 to 6.30 | > 7.00 | pIC50 (ALK2 (aa 147-end); ALK2 3 μM IC50, 3 uM ATP): 5.70 to 6.30 |

The next lines start with results.

| IC50 (FGFR2 (P)) | pIC50 (ALK2) | pIC50 (ALK2 (aa 147-end); [2]) | pIC50 (ALK2 (aa 147-end); ALK2 100 μM IC50, 100 uM ATP) | Structure (SMILES) | pIC50 (FGFR2 (P)) | further results |
| --- | --- | --- | --- | --- | --- | --- |
|  | 6.30 to 7.00 | > 7.00 |  | C[C@@H]1CN(c2ccc(-c3n[nH]c4cnc(N5[C@H](C)CCC[C@@H]5C)nc34)cn2)CCN1 [Example 1, 5-((2R,6S)-2,6-Dimethylpiperidin-1-yl)-3-(6-((R)-3-methylpiperazin-1-yl)pyridin-3-yl)-1H-pyrazolo[4,3-d]pyrimidine] | > 7.00 | pIC50 (FGFR3 (UP); [1]): > 7.00; pIC50 (ALK2 (aa 147-end); [3]): > 7.00; pIC50 (ALK2 (aa 147-end); [4]): > 7.00; pIC50 (FGFR1 (UP)): 6.30 to 7.00 |
| 100 to 500 nM | 6.30 to 7.00 | > 7.00 | 6.30 to 7.00 | C[C@@H]1CN(c2ccc(-c3n[nH]c4cnc(N5[C@H](C)COC[C@@H]5C)nc34)cn2)CCN1 [Example 2, (3R,5S)-3,5-Dimethyl-4-(3-(6-((R)-3-methylpiperazin-1-yl)pyridin-3-yl)-1H-pyrazolo[4,3-d]pyrimidin-5-yl)morpholine] |  | pIC50 (FGFR3 (UP); [1]): > 7.00; pIC50 (ALK2 (aa 147-end); ALK2 1 mM IC50, 1 mM ATP): 5.70 to 6.30; pIC50 (FGFR1 (UP)): 6.30 to 7.00 |
| 500 to 2000 nM | 6.30 to 7.00 | > 7.00 | 6.30 to 7.00 | CC(C)NC(=O)N1C[C@@H](C)N(c2ncc3[nH]nc(-c4ccc(N5CCN[C@H](C)C5)nc4)c3n2)[C@@H](C)C1 [Example 7, (3R,5S)—N-isopropyl-3,5-dimethyl-4-(3-(6-((R)-3-methylpiperazin-1-yl)pyridin-3-yl)-1H-pyrazolo[4,3-d]pyrimidin-5-yl)piperazine-1-carboxamide] |  | pIC50 (FGFR3 (UP)): 5.70 to 6.30; pIC50 (ALK2 (aa 147-end); ALK2 1 mM IC50, 1 mM ATP): 6.30 to 7.00; pIC50 (FGFR1 (UP)): 5.70 to 6.30 |
|  | 6.30 to 7.00 | > 7.00 |  | C[C@@H]1CN(c2ccc(-c3n[nH]c4cnc(N5[C@H](C)CN(C(=O)N(C)C)C[C@@H]5C)nc34)cn2)CCN1 [Example 8, (3R,5S)—N,N,3,5-tetramethyl-4-(3-(6-((R)-3-methylpiperazin-1-yl)pyridin-3-yl)-1H-pyrazolo[4,3-d]pyrimidin-5-yl)piperazine-1-carboxamide] |  | pIC50 (ALK2 (aa 147-end); [3]): > 7.00; pIC50 (ALK2 (aa 147-end); [4]): > 7.00 |
|  | 6.30 to 7.00 | > 7.00 |  | CCN1CCN(c2ccc(-c3n[nH]c4cnc(N5[C@H](C)CN(C(=O)OC)C[C@@H]5C)nc34)cc2C)CC1 [Example 25, Methyl (3R,5S)-4-(3-(4-(4-ethylpiperazin-1-yl)-3-methylphenyl)-1H-pyrazolo[4,3-d]pyrimidin-5-yl)-3,5-dimethylpiperazine-1-carboxylate] |  | pIC50 (ALK2 (aa 147-end); [3]): > 7.00 |
| 500 to 2000 nM |  |  |  | Cn1cc(-c2n[nH]c3cnc(N4CCN(C5CC5)C(=O)C4)nc23)cn1 [Example 37, 1-Cyclopropyl-4-(3-(1-methyl-1H-pyrazol-4-yl)-1H-pyrazolo[4,3-d]pyrimidin-5-yl)piperazin-2-one] |  | pIC50 (FGFR3 (UP)): 6.30 to 7.00; pIC50 (FGFR1 (UP); [5]): < 5.70 |
|  |  |  | 5.70 to 6.30 | CC1C(=O)N(C)CCN1c1ncc2[nH]nc(-c3cnn(C)c3)c2n1 (centres unmarked) [Example 38, 1,3-Dimethyl-4-(3-(1-methyl-1H-pyrazol-4-yl)-1H-pyrazolo[4,3-d]pyrimidin-5-yl)piperazin-2-one] | > 7.00 | pIC50 (ALK2 (aa 147-end); ALK2 3 μM IC50, 3 uM ATP): 6.30 to 7.00 |
| 100 to 500 nM |  |  |  | CC1c2nccn2CCN1c1ncc2[nH]nc(-c3cnn(C)c3)c2n1 (centres unmarked) [Example 43, 3-(1-Methyl-1H-pyrazol-4-yl)-5-(8-methyl-5,6-dihydroimidazo[1,2-a]pyrazin-7(8H)-yl)-1H-pyrazolo[4,3-d]pyrimidine] |  | pIC50 (FGFR3 (UP)): 6.30 to 7.00; pIC50 (FGFR1 (UP)): 5.70 to 6.30 |
| 500 to 2000 nM |  |  |  | COCCN1CCN(c2ncc3[nH]nc(-c4cnn(C)c4)c3n2)C(C)C1=O (centres unmarked) [Example 48, 1-(2-Methoxyethyl)-3-methyl-4-(3-(1-methyl-1H-pyrazol-4-yl)-1H-pyrazolo[4,3-d]pyrimidin-5-yl)piperazin-2-one] |  | pIC50 (FGFR3 (UP)): 6.30 to 7.00; pIC50 (FGFR1 (UP); [5]): < 5.70 |
